Results from publication PMC3344384 (Chemistry & biology, 2011).
Entries after “also recorded” stand apart in the source; their conditions may differ.

What was measured:
[1] = target: T1, USP1/UAF1 (Homo sapiens, UniProt O94782); test: gel-based K63-linked diubiquitin cleavage assay, USP1/UAF1; format: biochemical; details: IC50 USP1/UAF1, K63-linked diubiquitin substrate; NI = no significant inhibition at highest inhibitor concentration of 114 μM
[2] = tested on: Ub-PCNA in HEK293T cells; test: Western blot of Ub-PCNA level in cells; format: cell-based, human
[3] = in vitro; details: human
[4] = tested on: Ub-H2A in HEK293T cells; test: histone H2A monoubiquitination in cells; format: cell-based, human; details: in the presence or absence of cisplatin
[5] = target: USP1/UAF1 complex (Homo sapiens, UniProt O94782+Q8TAF3); test: native gel electrophoresis of USP1/UAF1 complex; details: incubation with inhibitor up to 10 × IC50
Sequence of USP1/UAF1 complex (O94782 whole entry): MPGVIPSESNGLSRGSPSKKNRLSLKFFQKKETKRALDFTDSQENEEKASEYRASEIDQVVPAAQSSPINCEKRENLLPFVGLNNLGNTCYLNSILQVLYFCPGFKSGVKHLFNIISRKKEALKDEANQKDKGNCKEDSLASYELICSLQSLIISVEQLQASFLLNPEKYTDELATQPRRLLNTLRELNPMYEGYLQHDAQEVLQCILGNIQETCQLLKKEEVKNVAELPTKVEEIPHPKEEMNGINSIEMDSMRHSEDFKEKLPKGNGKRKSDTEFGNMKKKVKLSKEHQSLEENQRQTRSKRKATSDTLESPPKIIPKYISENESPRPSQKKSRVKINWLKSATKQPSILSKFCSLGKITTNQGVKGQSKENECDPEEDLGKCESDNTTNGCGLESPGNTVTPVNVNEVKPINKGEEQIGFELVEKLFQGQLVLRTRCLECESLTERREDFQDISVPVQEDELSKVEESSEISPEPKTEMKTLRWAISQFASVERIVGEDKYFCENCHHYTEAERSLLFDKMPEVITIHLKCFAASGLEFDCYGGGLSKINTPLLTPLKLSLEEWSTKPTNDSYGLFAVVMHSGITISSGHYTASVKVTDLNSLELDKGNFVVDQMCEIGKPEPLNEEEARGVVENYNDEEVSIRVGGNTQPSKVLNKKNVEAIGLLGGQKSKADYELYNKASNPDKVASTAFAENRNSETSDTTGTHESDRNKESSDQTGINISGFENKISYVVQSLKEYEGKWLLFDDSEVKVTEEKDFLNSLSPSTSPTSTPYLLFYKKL
Sequence of USP1/UAF1 complex (Q8TAF3 whole entry): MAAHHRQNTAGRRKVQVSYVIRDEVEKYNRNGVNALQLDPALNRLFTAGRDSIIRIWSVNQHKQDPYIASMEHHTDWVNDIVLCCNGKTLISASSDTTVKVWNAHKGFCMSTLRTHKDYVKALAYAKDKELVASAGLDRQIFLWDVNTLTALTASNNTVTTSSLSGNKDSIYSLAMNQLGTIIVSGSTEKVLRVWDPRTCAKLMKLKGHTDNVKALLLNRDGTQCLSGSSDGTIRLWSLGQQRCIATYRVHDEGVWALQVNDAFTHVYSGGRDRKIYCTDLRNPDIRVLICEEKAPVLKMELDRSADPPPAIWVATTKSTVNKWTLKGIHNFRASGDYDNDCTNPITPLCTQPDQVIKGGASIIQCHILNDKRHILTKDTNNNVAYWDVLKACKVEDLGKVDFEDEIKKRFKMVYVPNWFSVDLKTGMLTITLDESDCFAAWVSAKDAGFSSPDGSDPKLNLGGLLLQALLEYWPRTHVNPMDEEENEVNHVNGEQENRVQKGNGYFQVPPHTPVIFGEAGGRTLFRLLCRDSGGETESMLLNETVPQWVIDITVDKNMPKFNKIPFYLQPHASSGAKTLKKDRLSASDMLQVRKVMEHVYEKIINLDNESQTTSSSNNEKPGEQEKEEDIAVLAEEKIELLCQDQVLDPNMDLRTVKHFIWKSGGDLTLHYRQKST

[6] = tested on: Ub-FANCD2 in HEK293T cells; test: Western blot of Ub-FANCD2 level in cells; format: cell-based, human
[7] = target: T1, USP1/UAF1; test: steady-state kinetics; format: biochemical
[8] = target: USP1/UAF1 (Homo sapiens, UniProt O94782+Q8TAF3); test: steady-state kinetics; format: biochemical; details: Lineweaver-Burk plots, K63-linked di-Ub substrate
Sequence of USP1/UAF1 (Homo sapiens, UniProt O94782+Q8TAF3) (O94782 whole entry): as the sequence (O94782 whole entry) above
Sequence of USP1/UAF1 (Homo sapiens, UniProt O94782+Q8TAF3) (Q8TAF3 whole entry): as the sequence (Q8TAF3 whole entry) above

T1 sequence (O94782 whole entry): as the sequence (O94782 whole entry) above
T1 sequence (Q8TAF3 whole entry, further chain): as the sequence (Q8TAF3 whole entry) above

## CN1CCN(CCCN2c3ccccc3Sc3ccc(C(F)(F)F)cc32)CC1 [Trifluoperazine, trifluoperazine]
[1]
  IC50: ≤ 8 µM

## OCCN1CCN(CCC=C2c3ccccc3Sc3ccc(C(F)(F)F)cc32)CC1 [Flupenthixol, flupenthixol]
[1]
  IC50: 7 ± 1 µM

## O=c1[nH]c2ccccc2n1C1CCN(CCCC(c2ccc(F)cc2)c2ccc(F)cc2)CC1 [Pimozide, pimozide]
[2]
  monoubiquitination of PCNA, single agent: significant increase
[3]
  EC50 at 48 h: 21 µM
[4]
  effect on level of Ub-H2A: no effect
[5]
  dissociation of the USP1/UAF1 complex: no dissociation
[6]
  Ub-FANCD2 level, single agent: increase in Ub-FANCD2 level
[7]
  Ki: 0.5 µM
[8]
  inhibition mechanism: noncompetitively; also recorded: noncompetitive inhibition mechanism

## CC(C)(Sc1ccc(CCN(CCCCC2CCCCC2)C(=O)NC2CCCCC2)cc1)C(=O)O [GW7647]
[2]
  monoubiquitination of PCNA, single agent: significant increase
[3]
  EC50 at 48 h: 26 µM
[4]
  effect on level of Ub-H2A: no effect
[5]
  dissociation of the USP1/UAF1 complex: no dissociation
[6]
  Ub-FANCD2 level, single agent: increase in Ub-FANCD2 level
[7]
  Ki: 0.7 µM
[8]
  inhibition mechanism: noncompetitively; also recorded: noncompetitive inhibition mechanism
